This test addresses Bacillus amyloliquefaciens alpha-amylase (BAA) (Bacillus amyloliquefaciens, UniProt P00692). The test can be described thus: Bernfeld DNS assay of starch hydrolysis ([…] nm) with commercial enzyme. The format is biochemical.

The values below come from article PMC11162409, “Phenylalanine as an effective stabilizer and aggregation inhibitor of Bacillus amyloliquefaciens alpha-amylase” (AMB Express, 2024).

Chain of Bacillus amyloliquefaciens alpha-amylase (BAA) (P00692 32-514): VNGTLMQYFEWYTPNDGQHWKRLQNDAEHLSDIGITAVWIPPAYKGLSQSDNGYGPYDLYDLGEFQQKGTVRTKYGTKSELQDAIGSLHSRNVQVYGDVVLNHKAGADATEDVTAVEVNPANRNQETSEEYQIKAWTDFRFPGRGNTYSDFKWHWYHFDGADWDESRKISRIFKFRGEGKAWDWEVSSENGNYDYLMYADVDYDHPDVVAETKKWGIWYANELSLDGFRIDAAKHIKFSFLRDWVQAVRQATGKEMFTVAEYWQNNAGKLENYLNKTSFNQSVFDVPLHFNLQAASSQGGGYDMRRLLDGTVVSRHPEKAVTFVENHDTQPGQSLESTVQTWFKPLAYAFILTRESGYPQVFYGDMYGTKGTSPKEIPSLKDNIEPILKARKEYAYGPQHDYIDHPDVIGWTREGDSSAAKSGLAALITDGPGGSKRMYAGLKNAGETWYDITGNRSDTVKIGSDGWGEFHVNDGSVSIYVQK

In general, IC50 refers to the midpoint of a concentration-inhibition curve. Low values mean greater potency in that assay, high ones weaker potency in that assay. In the case of `N[C@@H](Cc1ccc(O)cc1)C(=O)O` [Tyr, tyrosine], the IC50 was approximately 100 mM.
